Read-outs that look alike come from different tables or passages of the source.
Legend:
[1] = tested on: L1210 murine leukemia cells; experiment: Cytotoxicity (parallel assay) against L1210 murine leukemia cells; format: cell-based; details: for activity relative to crambescidin 816 (1) / cytotoxic activity compared with other compounds: L1210 cells; for inhibition at 0.1 µg/mL / inhibition at 0.25 µg/mL / inhibition at 0.5 µg/mL / inhibition at 1 µg/mL: Mus musculus; for inhibition at 0.1 µg/mL: L1210, 0.1 μg/mL; for inhibition at 0.25 µg/mL: L1210, 0.25 μg/mL; for inhibition at 0.5 µg/mL: L1210, 0.5 μg/mL; for inhibition at 1 µg/mL: L1210, 1.0 μg/mL
Description: However, crambescidins 674 (9) and 687 (10) without a spermidine derivative unit are less than 5 times as active than 1.
Cytotoxicities against L1210 Cells for Compounds 1, 6-12,

L1210 cells = details: cited from earlier work
[2] = virus not named; cited from earlier work
Ca^2+ channel = details: cited from earlier work
[3] = tested on: Herpes simple-x, Type I virus (HSV-I); details: cited from earlier work
KB cells = details: cited from earlier work
Rhodotorula glutinis = experiment: Antimicrobial assay against Rhodotorula glutinis; format: cell-based
HSV = details: cited from earlier work
P388 cells = details: cited from earlier work
Candida albicans = details: cited from earlier work
[4] = times as active than 1, without a spermidine derivative unit

| SMILES | inhibition at 0.1 µg/mL [1] [%] | inhibition at 0.25 µg/mL [1] [%] | inhibition at 0.5 µg/mL [1] [%] | inhibition at 1 µg/mL [1] [%] | other results |
| --- | --- | --- | --- | --- | --- |
| CCC1C=CCCC2(CC3CCC4(O)C(C(=O)OCCCCCCCCCCCCCCCC(=O)OC)C5(CCCC(C)O5)NC(=N2)N34)O1 (centres unmarked) [Compound 10, Crambescidin 687] | 0 | 0 | 0 | 100 | activity relative to crambescidin 816 (1) [1, 4]: less than 5 times |
| CCC1C=CCCC2(CC3CCC4C(C(=O)OCCCCCCCCCCCCCCCC(=O)O)C5(CCCC(C)O5)NC(=N2)N34)O1 (centres unmarked) [Compound 11, Crambescidin 657] | – | – | – | 100 | Inhibition (%) ([1]; 0.1 μg/mL): 93%; cytotoxic activity compared with other compounds ([1]; listed as crambescidin 657 (11)): most cytotoxic compound in the test |
| CCC1C=CCCC2(CC3CCC4C(C(=O)OCCCCCCCCCCCCCCCC(=O)N(CCCN)CC(O)CCN)C5(CCCC(C)O5)NC(=N2)N34)O1 (centres unmarked) [Compound 5, 13, 14, 15-Isocrambescidin 800] | – | – | – | – | growth inhibition / cytotoxicity, L1210 cells (L1210 cells): substantially less cytotoxic; antiviral activity [2]: no observed antiviral activity |
| CCC1C=CCCC2(CC3CCC4(O)C(C(=O)OCCCCCCCCCCCCCCCC(=O)N(CCCN)CC(O)CCN)C5(CCCC(C)O5)NC(=N2)N34)O1 (centres unmarked) [Compound 1, crambescidin 816, reference compound] | 0 | 70 | 97 | 100 | Ca^2+ channel blocker (Ca^2+ channel): potent calcium channel blocker; Ca^2+ channel blocker (Ca^2+ channel; listed as crambescidin 816 (1)): strong Ca^2+ channel blocker; antiviral activity against HSV-I [3]: exhibited antiviral activity |
| CCC1C=CCCC2(CC3CCC4(O)C(C(=O)OCCCCCCCCCCCCCCCC(=O)N(CCCN)CC(Cl)CCN)C5(CCCC(C)O5)NC(=N2)N34)O1 (centres unmarked) [Compound 7, Crambescidin 834] | 90 | 95 | 95 | 100 | activity relative to crambescidin 816 (1) ([1]; times more active than 1): about 5 times |
| CCC1C=CCCC2(CC3CCC4C(C(=O)OCCCCCCCCCCCCCCCC(=O)O)C5(CCCC(C)O5)NC(=N2)N34)O1 (centres unmarked) [Compound 12, 13,14,15-Isocrambescidin 657] | – | – | – | – | Inhibition (%) ([1]; 0.1 μg/mL): 0%; Inhibition (%) ([1]; 0.25 μg/mL): 0%; Inhibition (%) ([1]; 0.5 μg/mL): 0%; Inhibition (%) ([1]; 1.0 μg/mL): 100%; inhibition at 5 μg/mL ([1]; 5 μg/mL): no inhibition; cytotoxic activity compared with other compounds ([1]; listed as 13, 14, 15-Isocrambescidin 657 (12)): substantially less active |
| CCC1C=CCCC2(CC3CCC4C(C(=O)OCCCCCCCCCCCCCCCC(=O)N(CCCN)CC(Cl)CCN)C5(CCCC(C)O5)NC(=N2)N34)O1 (centres unmarked) [Compound 8, Crambescidin 818] | 90 | 95 | 95 | 100 | activity relative to crambescidin 816 (1) ([1]; times more active than 1): about 5 times |
| CCC1C=CCCC2(CC3CCC4C(C(=O)OCCCCCCCCCCCCCCCC(=O)OC)C5(CCCC(C)O5)NC(=N2)N34)O1 (centres unmarked) [Methyl 11] | 0 | 0 | 0 | 0 | – |
| CCC1C=CCCC2(CC3CCC4C(C(=O)OCCCCCCCCCCCCCCCC(=O)N(CCCN)CCCCN)C5(CCCC(C)O5)NC(=N2)N34)O1 (centres unmarked) [Compound 6, ptilomycalin A] | 20 | 60 | 99 | 100 | cytotoxicity, KB cells (KB cells): shown cytotoxicity; antimicrobial activity at 2 μg/well (Rhodotorula glutinis): active; antiviral activity (HSV) (HSV): antiviral activity (HSV); growth inhibition / cytotoxicity, L1210 cells (L1210 cells): shown cytotoxicity; cytotoxicity, P388 cells (P388 cells): shown cytotoxicity; cytotoxic activity compared with other compounds [1]: slightly more active than 1; antifungal activity against Candida albicans (Candida albicans): antifungal activity |
| CCC1C=CCCC2(CC3CCC4(O)C(C(=O)OCCCCCCCCCCCCCCCC(=O)O)C5(CCCC(C)O5)NC(=N2)N34)O1 (centres unmarked) [Compound 9, Crambescidin 673] | 0 | 0 | 0 | 100 | activity relative to crambescidin 816 (1) [1, 4]: less than 5 times |
